From the NIST ThermoML archive (doi:10.1016/j.tca.2010.09.004)
± gives the expanded uncertainty stated by the source.

Settings: 101.33 kPa, Liquid; for speed of sound: Sing-around technique in a fixed-path interferometer; for mass density: Vibrating tube method

SMILES	speed of sound (293.15 K)	mass density (293.15 K)	speed of sound (298.15 K)	mass density (298.15 K)	speed of sound (303.15 K)	mass density (303.15 K)
CCCCNCCCC [dibutylamine]	1261.2 ± 1 m/s	759.571 ± 0.2 kg/m3	1241.3 ± 1 m/s	755.457 ± 0.2 kg/m3	1222.5 ± 1 m/s	751.329 ± 0.21 kg/m3
CCN(CC)CC [triethylamine]	1132.8 ± 1 m/s	727.515 ± 0.22 kg/m3	1111.1 ± 1 m/s	722.822 ± 0.22 kg/m3	1090.7 ± 1 m/s	718.201 ± 0.22 kg/m3
CCCNCCC [dipropylamine]	1209.2 ± 1.4 m/s	738.188 ± 0.32 kg/m3	1187.7 ± 1.3 m/s	733.683 ± 0.32 kg/m3	1167.1 ± 1.3 m/s	729.087 ± 0.32 kg/m3
CCC(C)=O [butanone]	1212.3 ± 1 m/s	805.351 ± 0.19 kg/m3	1191 ± 1 m/s	800.077 ± 0.19 kg/m3	1170.8 ± 1 m/s	794.779 ± 0.19 kg/m3
